Assay results from publication PMC6895048, “4,5-Disubstituted 1,2,3-triazoles: Effective Inhibition of Indoleamine 2,3-Dioxygenase 1 Enzyme Regulates T cell Activity and Mitigates Tumor Growth” (Scientific Reports, 2019).

molecular target: T1, purified human IDO1 enzyme (Homo sapiens, UniProt P14902); assay: IDO1 inhibition assay by the spectrometric method (pDMAB); type: biochemical; conditions: in comparison with lead compound 1a
T1 construct: made in house; host or cells: Escherichia coli M15 (pQE30 vector with pREP4 plasmid)
Method: Both IDO1 and TDO inhibition assays were performed according to the reported procedures[26]–[30],[50],[51]. […] In the assay system, the minimum and maximum amount of DMSO was 0.02% and 2%, respectively. […] The concentration of the inhibitors was varied from 100 µM to 32 nM by serial dilution technique. Then, the reaction was quenched with 100 µL of 30% (w/v) trichloroacetic acid and was incubated for further 15 minutes at 65 °C. After that, 2% (w/v) pDMAB was used to quantify the amount of kynurenine formation. The absorbance of the reaction mixture was recorded by UV-Vis spectrophotometer at 480 nm.

T1 sequence (P14902 whole entry): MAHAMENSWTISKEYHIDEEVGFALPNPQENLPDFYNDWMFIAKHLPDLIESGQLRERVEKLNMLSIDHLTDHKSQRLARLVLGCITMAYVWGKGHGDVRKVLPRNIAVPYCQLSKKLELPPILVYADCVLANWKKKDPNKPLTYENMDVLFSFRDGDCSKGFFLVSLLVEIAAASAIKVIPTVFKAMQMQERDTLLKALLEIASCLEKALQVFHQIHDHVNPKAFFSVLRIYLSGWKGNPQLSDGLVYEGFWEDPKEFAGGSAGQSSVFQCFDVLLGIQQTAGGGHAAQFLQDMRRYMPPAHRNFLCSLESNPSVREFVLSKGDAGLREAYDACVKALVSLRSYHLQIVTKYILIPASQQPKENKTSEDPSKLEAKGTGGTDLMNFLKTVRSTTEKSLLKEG

fold stronger IDO1 inhibitory activity than 1a | SMILES
46 fold | Fc1ccc(-c2n[nH]nc2-c2ccc(F)c(Br)c2)cc1Br [1 l]

same assay, conditions: purified human IDO1; spectrophotometric; mean of three independent assays; read-out: hIDO1 IC50

IC50 | SMILES
3.81 ± 0.24 µM | O=C(N/C(Cc1ccc(F)c(F)c1)=N\O)c1n[nH]nc1-c1ccc(F)c(F)c1 [Compound 4h]
31.4 ± 4.21 µM | CCOC(=O)c1n[nH]nc1-c1cccc(F)c1 [Compound 2c]
4.99 ± 0.057 µM | Fc1cccc(-c2n[nH]nc2-c2cccc(F)c2)c1 [Compound 1c]
3.21 ± 0.1 µM | Clc1ccc(-c2n[nH]nc2-c2ccc(Cl)cc2)cc1 [Compound 1g]
54.9 ± 0.757 µM | Cc1ccc(-c2n[nH]nc2-c2ccc(C)cc2)cc1 [Compound 1b]
6.91 ± 0.099 µM | Fc1ccc(-c2n[nH]nc2-c2ccc(F)c(Cl)c2)cc1Cl [Compound 1k]
2.36 ± 0.308 µM | CC(=O)Nc1ccc(/C(=N/O)NC(=O)c2n[nH]nc2-c2ccc(F)c(F)c2)cc1 [Compound 4j]
8.09 ± 0.21 µM | CCOC(=O)c1n[nH]nc1-c1ccc(F)cc1 [Compound 2f]
26.7 ± 2.2 µM | NC(=O)c1n[nH]nc1-c1cccc(Br)c1 [Compound 3e]
21.9 ± 1.27 µM | Brc1cccc(-c2n[nH]nc2-c2cccc(Br)c2)c1 [Compound 1e]
40.7 ± 2.7 µM | Brc1ccc(-c2n[nH]nc2-c2ccc(Br)cc2)cc1 [Compound 1h]
12.9 ± 0.191 µM | Clc1ccc(-c2n[nH]nc2-c2ccc(Cl)c(Cl)c2)cc1Cl [Compound 1j]
1.94 ± 0.083 µM | Fc1ccc(-c2n[nH]nc2-c2ccc(F)c(Br)c2)cc1Br [1 l]
2.69 ± 0.055 µM | NC(=O)c1n[nH]nc1-c1cccc(Cl)c1 [Compound 3d]
25.2 ± 1.7 µM | Fc1ccc(-c2n[nH]nc2-c2ccc(F)cc2)cc1 [Compound 1f]
2.94 ± 0.034 µM | NC(=O)c1n[nH]nc1-c1ccc(F)cc1 [Compound 3f]

IC50 | SMILES
3.04 ± 0.091 µM | CCOC(=O)c1n[nH]nc1-c1ccc(F)c(Br)c1 [2 l]
1.69 ± 0.102 µM | CCOC(=O)c1n[nH]nc1-c1ccc(F)c(Cl)c1 [Compound 2k]
1.993 ± 0.005 µM | NC(=O)c1n[nH]nc1-c1ccc(F)c(Br)c1 [3 l]
0.88 ± 0.018 µM | O=C(N/C(Cc1ccccc1)=N\O)c1n[nH]nc1-c1ccc(F)c(F)c1 [Compound 4g]
7.72 ± 0.761 µM | Fc1ccc(-c2n[nH]nc2-c2ccc(F)c(F)c2)cc1F [Compound 1i]
18.7 ± 0.398 µM | O=C(NC1C2CC3CC(C2)CC1C3)c1n[nH]nc1-c1ccc(Cl)c(Cl)c1 (stereo not drawn) [Compound 4e]
1.83 ± 0.126 µM | NC(=O)c1n[nH]nc1-c1ccc(F)c(Cl)c1 [Compound 3k]
2.55 ± 0.033 µM | CCOC(=O)c1n[nH]nc1-c1cccc(Cl)c1 [Compound 2d]
5.156 ± 0.011 µM | NC(=O)c1n[nH]nc1-c1ccc(Br)cc1 [Compound 3h]
1.7 ± 0.061 µM | CCOC(=O)c1n[nH]nc1-c1ccc(C)cc1 [Compound 2b]
2.981 ± 0.012 µM | CCOC(=O)c1n[nH]nc1-c1cccc(Br)c1 [Compound 2e]
6.61 ± 0.355 µM | NC(=O)c1n[nH]nc1-c1cccc(F)c1 [Compound 3c]
2.51 ± 0.06 µM | Clc1cccc(-c2n[nH]nc2-c2cccc(Cl)c2)c1 [Compound 1d]
7.08 ± 0.691 µM | Cc1ccc(-c2n[nH]nc2C(N)=O)cc1 [Compound 3b]
18.4 ± 1.68 µM | CCOC(=O)c1n[nH]nc1-c1ccc(Br)cc1 [Compound 2h]
2.74 ± 0.195 µM | CC(C)(C)OC(=O)NCCNC(=O)c1n[nH]nc1-c1ccc(F)c(F)c1 [Compound 4f]
